Test results reported in US8206704B2, “Use of GCC ligands” (priority 2003, dated 2012).
Entries after “also recorded” stand apart in the source; their conditions may differ. Like-named read-outs stand apart in the source and are kept apart here.

Experiments:
T84 cells [1] = experiment: 45Ca2+ transport (calcium influx); format: cell-based, human
Protocol: Exponentially growing T84 cells (40-80% confluent in 24-well plates) were incubated in media (S-MEM, Life Technologies, Rockville, Md.) containing low (300 μM) CaCl2 to maximize the signal-to-noise ratio for L-cis-diltiazem (L-DLT)-sensitive 45Ca2+ transport determinations. Cells were treated with ST, 8-br-cGMP, and/or L-DLT for the indicated times, followed by the addition of 1 μCi per well 45Ca2+ for the last 15 min. Incubations were terminated by washing four times in cold PBS buffer (145 mM NaCl/5 mM KCl/1 mM MgCl2/10 mM glucose/5 mM Hepes, pH 7.4) containing 0.1 mM EGTA, cells were solubilized with cold NaOH (0.1 M), and radioactivity was quantified in 100-μl aliquots.

[2] = system: human T84 colon cancer cells; experiment: Perforated whole-cell patch-clamp current measurements; format: cell-based
Protocol: The perforated mode of the whole-cell patch-clamp recording was applied to human T84 colon cancer cells. Membrane potential was controlled through the electrical access obtained by membrane perforation induced by amphotericin B (9, 10). The pipette solution supplemented by amphotericin B ([…]) contained: 140 mM KCl, 1 mM MgCl2, 5 mM EGTA, and 20 mM Hepes-KOH (pH 7.3). The bath solution contained (in mM): 136.5 mM NaCl, 5.4 mM KCl, 1.8 mM CaCl2, 0.5 mM MgCl2, 5.5 mM glucose, and 5 mM Hepes-NaOH (pH 7.4). Voltage-clamp recordings were performed with an Axopatch 1-C patch-clamp amplifier (Axon Instruments, Foster City, Calif.) at 31±1° C. using an HCC-100 temperature controller (Dagan Instruments, Minneapolis; ref. 19).

T84 cells [3] = experiment: DNA synthesis ([methyl-3H]thymidine incorporation), tumor cell proliferation; format: cell-based, human
Protocol: (§1) T84 (passages 50-70) and SW480 (passage 100-120) human colon carcinoma cells, obtained from the American Type Culture Collection, were maintained at 37° C. (5% CO2) in DMEM/F12 containing 2.5 mM L-glutamine, 100 units/ml penicillin, 100 μg/ml streptomycin, and 10% (vol/vol) FBS.
(§2) Exponentially growing cancer cells (˜60% confluent in 96-well plates) were synchronized by serum starvation in Eagle's minimal essential medium (EMEM) for 48 h, followed by proliferative induction with 10 mM L-glutamine (in EMEM) for 24 h. ST and other agents were added to cells 15 min before 0.2 μCi per well (1 Ci=37 GBq) of [methyl-3H]thymidine, which was added for 3 h, followed by quantification of [3H]thymidine incorporation into DNA (15).

rat colon = settings: L-DLT 200 μM; cited from earlier work
[4] = Pharmacokinetics of ST in rats; format: in vivo, rat; settings: for half-life: rat, in vivo
[5] = ST as an anticancer agent in vitro; format: cell-based
[6] = Pharmacokinetics of ST in man by allometric scaling and dosage calculation
Text: An alternative approach is to provide the patient with continual intravenous dosing of ST, thereby maintaining the cytostatic effect through adjuvant chemotherapy, while minimizing any adverse effects associated with ST. To achieve therapeutic efficacy, the steady state concentration (Css) should be ≧10 EC50.

[7] = system: [cGMP]i and intracellular cAMP in T84 cells; experiment: Cyclic nucleotide (cGMP, cAMP) quantification by ELISA or RIA; format: cell-based, human
Protocol: cGMP and cAMP were quantified in exponentially growing T84 cells (˜60% confluent in 96-well plates) employing ELISA (Amersham Pharmacia) or RIA. In experiments employing ELISA, media was aspirated, reactions were terminated by the addition of a lysis solution (200 μl per well) containing 0.5% dodecyltrimethylammonium bromide, and aliquots (100 μl) from each well were processed for cyclic nucleotide determinations. In experiments employing RIA, reactions were terminated with ice-cold 100% ethanol, and supernatants were separated from pellets by centrifugation and processed for cGMP determinations (8).

SW480 cells = experiment: DNA synthesis ([methyl-3H]thymidine incorporation), tumor cell proliferation; format: cell-based, human; settings: SW480 cells that do not express GC-C, ST 1 μM
Protocol: as §1, §2

[8] = system: matrix metalloproteinase 9 release from human colorectal cancer cells; experiment: Release of matrix metalloproteinase 9 (MMP 9 activity, western blot); format: cell-based; settings: ST 1 micromolar
Text: Preventing the secretion of this digestive enzyme will inhibit the ability of these tumor cells to invade the wall of the intestine. […] ST did this at a concentration of 1 micromolar.

[9] = system: human colorectal cancer cells; experiment: Association of cells with connective tissue proteins in vitro; format: cell-based; settings: ST at 1 micromolar
Text: Type IV collagen forms the connective tissue meshwork supporting the lamina propria and specifically serves to trap cells through specific interactions with beta integrins. Cancer cells evade this trap by diminishing their ability to bind to type IV collagen. […] Enhancing this interaction will prevent metastases by trapping cells in the laminapropria underlying epithelial cells in the intestine.

GCC-bearing cells = experiment: Pre-clinical cell cycle analysis; format: cell-based; settings: ST alone
[10] = system: human T84 colon cancer cells; experiment: Perforated whole-cell patch-clamp current measurements; format: cell-based; settings: Ca-free solution, n=5
[11] = system: human colorectal cancer cells; experiment: Actin cytoskeleton organization (confocal microscopy, cell spreading); format: cell-based
Text: ST prevented human colorectal cancer cells from organizing their actin cytoskeleton. […] The latter is a functional readout of the ability of cells to organize actin. Human colorectal cancer cells treated with ST cannot spread their bodies out in vitro. An inability to organize their actin cytoskeletons will prevent these cells from being able to migrate through tissues to metastasize.

ST receptors = ST receptors (Homo sapiens, UniProt P25092); settings: about; cited from earlier work
Sequence of ST receptors (P25092 24-1073): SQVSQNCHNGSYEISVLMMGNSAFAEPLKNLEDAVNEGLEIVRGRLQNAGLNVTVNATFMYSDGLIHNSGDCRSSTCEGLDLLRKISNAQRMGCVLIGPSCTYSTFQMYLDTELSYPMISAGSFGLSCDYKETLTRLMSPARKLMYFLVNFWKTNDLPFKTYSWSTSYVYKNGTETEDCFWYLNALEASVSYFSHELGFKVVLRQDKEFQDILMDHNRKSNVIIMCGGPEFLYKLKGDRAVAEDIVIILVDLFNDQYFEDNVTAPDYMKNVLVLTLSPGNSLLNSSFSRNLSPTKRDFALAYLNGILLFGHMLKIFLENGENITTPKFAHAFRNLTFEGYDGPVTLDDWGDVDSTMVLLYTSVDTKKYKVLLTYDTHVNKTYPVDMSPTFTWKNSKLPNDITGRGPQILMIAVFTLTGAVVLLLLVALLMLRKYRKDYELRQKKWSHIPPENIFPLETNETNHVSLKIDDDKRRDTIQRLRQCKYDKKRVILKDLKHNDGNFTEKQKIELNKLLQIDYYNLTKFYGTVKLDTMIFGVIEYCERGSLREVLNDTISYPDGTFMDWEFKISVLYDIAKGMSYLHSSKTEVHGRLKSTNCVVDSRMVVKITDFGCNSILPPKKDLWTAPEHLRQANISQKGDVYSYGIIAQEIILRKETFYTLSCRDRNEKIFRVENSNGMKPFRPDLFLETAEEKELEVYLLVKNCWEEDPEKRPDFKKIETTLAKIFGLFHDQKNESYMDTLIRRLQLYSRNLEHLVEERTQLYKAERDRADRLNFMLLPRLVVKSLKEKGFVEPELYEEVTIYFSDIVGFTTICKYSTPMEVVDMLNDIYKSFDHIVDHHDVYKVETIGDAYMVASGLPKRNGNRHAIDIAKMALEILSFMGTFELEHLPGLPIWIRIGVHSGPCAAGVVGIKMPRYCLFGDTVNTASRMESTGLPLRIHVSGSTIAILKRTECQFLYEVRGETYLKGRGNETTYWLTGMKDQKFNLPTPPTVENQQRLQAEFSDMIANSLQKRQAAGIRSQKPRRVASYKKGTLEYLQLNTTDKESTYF

In the case of `COc1ccc([C@H]2Sc3ccccc3N(CCN(C)C)C(=O)[C@H]2OC(C)=O)cc1` (relative stereo) [L-DLT, L-cis-diltiazem], the “Effect of L-DLT on ST- and 8-br-cGMP-induced 45Ca2+ influx” value (T84 cells [1]; pretreatment 30 min, 250 μM L-DLT) is reported as “inhibited; also recorded: abolished”, the “Effect of L-DLT on ST-induced current and reversal potential shift” value ([2]; 200 μM L-DLT) is reported as “reversibly blocked; also recorded: reversed” and the “Reversal potential Em restored by L-DLT in the presence of ST” value ([2]; n=4) is reported as −39.5±5.2 mV. The “Effect of L-DLT on inhibition of proliferation by 8-br-cGMP” value (T84 cells [3]; 200 μM L-DLT, 8-br-cGMP 5 mM) was “blocked”, the “Effect of agent on inhibition of proliferation induced by ST” value (T84 cells [3]; with ST, 1 μM KT5823, 50 μM RP8pCPT-cGMP, 0.5 μM KT5720, 50 μM RP-cAMPs, 10 μM milrinone, 200 μM L-DLT, 20 μM BAPTA, 50 μM DTR, 1 μM PHE, 100 nM CTX) was “prevented; also recorded: blocked” and the “Effect on ST-induced 45Ca2+ influx in the rat colon” value (rat colon) was “abolished”.
For `CC(C)C[C@@H]1NC(=O)[C@H](CCC(=O)O)NC(=O)[C@@H]2CSSC[C@@H]3NC(=O)[C@H](C)NC(=O)[C@@H]4CCCN4C(=O)[C@H](CC(N)=O)NC(=O)[C@H](CSSC[C@H](NC(=O)[C@H](Cc4ccc(O)cc4)NC(=O)[C@H](Cc4ccccc4)NC(=O)[C@@H](NC(=O)[C@@H](N)CC(N)=O)[C@@H](C)O)C(=O)N2)NC(=O)[C@H](CSSC[C@@H](C(=O)N[C@@H](Cc2ccc(O)cc2)C(=O)O)NC(=O)CNC(=O)[C@H](C)NC3=O)NC1=O` [ST], the “Volume of distribution, Vd” value ([4]; in rats, an ECF agent) was 49 mls in rats (An ECF agent), the Clearance ([4]; in rats, primarily renal) was 14.9 hr^−1 in rats (Primarily renal) and the half-life ([4]; α phase, read-out: Blood half-life for ST (rat), α) was 6 min. For the same compound, the half-life ([4]; β phase, read-out: Blood half-life for ST (rat), β (converted)) was 161 min, the IC50 [5] was 14 nM and the “Clearance Cl” value ([6]; 70 kg man, (0.693)(Vd)/(t1/2)) was 3.7 mL/min/kg. The “Volume of distribution Vd of ST” value ([6]; 70 kg patient, ECF volume) was 12 L, the “t1/2 (α) in man” value ([6]; calculated) was 24 min and the “Blood half-life for ST (man), α” value ([6]; man, α phase, allometric scaling theory) was 24 min. For the same compound, the “Blood half-life for ST (man), β” value ([6]; man, β phase, allometric scaling theory) was 667.2 min, the “t1/2 (α+β)” value ([6]; used for infusion rate calculation) was 31.8 min and the “Influx of 45Ca2+ into colon cancer cells” value (T84 cells [1]; ST 1 μM, 20 min, 8-br-cGMP 5 mM, 40 min) was “induced influx”. The “[cAMP]i accumulation” value [7] was “did not induce [cAMP]i accumulation”, the “[cGMP]i accumulation” value [7] was “induced the accumulation of [cGMP]i; also recorded: independent of [Ca2+]ext” and the “Induction of Ca2+-dependent K+ current (KCa), charybdotoxin-sensitive” value [2] was “induced”. The “Reversal potential derived from the induced current-voltage relationship” value [2] was roughly −70 mV, the “Induction of L-DLT-sensitive membrane current” value ([2]; 500 nM ST, 2.5 mM 8-br-cGMP) was “induced membrane current; also recorded: induces an L-DLT-sensitive current” and the “Induced current in the presence of [Ca2+]ext” value ([2]; control, 1.8 mM CaCl2, n=5) was 0.23±0.07 nA. The “Reversal potential Em in the presence of ST” value ([2]; n=6) was −66.3±3.6 mV, the “Shift of the reversal potential ΔEm” value ([2]; ramp pulses, holding potential −40 mV, mean±SEM) was −27.5±2.6 mV and the “Inhibition of DNA synthesis by ST” value (SW480 cells) was “not in tumor cells deficient in GC-C; also recorded: not in those cells that do not express GC-C”. The “Inhibition of DNA synthesis / cell proliferation by ST” value (T84 cells [3]; T84 cells expressing GC-C, ST 1 μM) was “inhibits DNA synthesis; also recorded: inhibits cell proliferation”, the “Release of matrix metalloproteinase 9” value [8] was “inhibited the release” and the “Increase of association of cells with laminin or fibronectin” value [9] was “not with laminin or fibronectin”. The “Increase of association of cells with type IV collagen” value [9] was 2 fold, the “Effect on cell cycle” value (GCC-bearing cells) was “prolongation of the cell cycle; also recorded: increases equally for all four phases of the cell cycle” and the “Induced current after removal of [Ca2+]ext” value [10] was 0.02±0.01 nA. For the same compound, the “Organization of actin cytoskeleton” value ([11]; ST 1 micromolar, confocal microscopy) was “prevented” and the Cell spreading ([11]; in vitro) was “cannot spread”.
In the case of “Guanylin: 15 amino acid peptide with about 50% sequence homology to ST, identified in mammalian intestine (PNTCEICAYAACTGC; guanylin)”, the “Guanylate cyclase activation level, fold less than native ST” value (ST receptors) is listed as 10- to 100 fold.
